Assay results from patent US12263144B2, “Methods of treating IgA nephropathy with thiol-containing molecules” (Accubit LLC—Biotechnology, priority 2020, dated 2025).

Key:
Format in all cases: biochemical
Rat rIgA (poly-rIgA) = assay: SEC determination of poly- and mono-rIgA content of rat rIgA after treatment; conditions: for disassembly of poly-rIgA into monomers (SEC): rat rIgA, reducing agents added, FIG. 3 A-C
Protocol: (§1) The overall complex size of IgA aggregates was determined either by size-exclusion chromatography (SEC: Superdex 200 Increase 10/300 by GL Cytiva), or by SDS-PAGE. For evaluating the involvement of intermolecular disulfide connectivity in IgA complexes, IgA samples were treated with either reducing agents, such as DTT, TCEP or reduced glutathione (Sigma), or interventional drugs, such as cysteamine (Sigma), WR-1065 (Sigma) and N-Acetyl-L-cysteine (VWR Chemicals) in phosphate-buffered saline (PBS) pH7.4. Before running on SEC, samples were treated with the drugs at indicated concentrations at 37° C. for one hour.
In the meantime, the SEC column was also equilibrated with PBS supplemented with the reducing agent at the same concentration. For running SEC, 100 μL of the recombinant IgA (concentration varies between 1 mg/mL and 8 mg/mL) or purified native human IgA1 (˜1 mg/mL) was loaded to the column and UV absorption was recorded following elution. […] The ratios between poly-rIgA and mono-rIgA were calculated as between the corresponding areas under the curve (AUC), and the treatment effect of the thiol agents was judged by the reduction of the poly-rIgA level with a compensatory increase of the mono-rIgA content.
To further investigate specific cysteine residue(s) involved in IgA complexes, expression vectors were constructed to produce recombinant IgA (rIgA) Fc segments of rat and human sequences (FIG. 2, part A) as discussed above. Rat IgA analogs were expressed in BL21 DE3 strain of E. coil and recombinant protein were purified from the bacterial lysate using Histrap HP columns (GE Healthcare) by running fast protein liquid chromatography (FPLC). Human recombinant IgA mimetics were produced from human embryo kidney (HEK293) cells by transfection of the expressing plasmids. Recombinant IgA proteins expressed by the cells were secreted into the culture medium, and they were subsequently purified by Histrap HP columns by FPLC using standard procedures. […] Rat rIgA was produced from bacterial expression as discussed above.
Cysteamine (Cy), an aminothiol that can react with cysteine, is both a natural metabolite produced in mammalian cells and a clinical drug used for treatment of cystinosis. In cystinosis, cysteamine reduces the disulfide bond in cystine, which is the oxidated dimer of amino acid cysteine (FIG. 4, part A). In the context of cysteine residues in proteins, endogenous cysteamine as well as the therapeutic drug forms mixed disulfides with susceptible cysteine sulfhydryl groups in a process called cysteamination (FIG. 4, part B). It was sought to determine whether cysteamine could reduce Cys471-disulfides to disaggregate poly-IgA. Rat rIgA (SEQ ID NO.4) was treated with various concentrations of cysteamine for one hour at 37° C. in phosphate buffered saline at neutral pH and the protein complexes were analyzed by SEC. The SEC column (model: Superdex 200 Increase 10/300 GL by Cytiva) was preequilibrated with the same buffer supplemented with the same concentration of cysteamine.

[1] = system: natural IgA1 assembly (two heavy chains and two light chains connected via disulfide bonds); assay: Ex vivo study: integrity of natural IgA assembly under thiol/reducing agents
Protocol: as §1
(§2) Proteins in sample buffer (Bio-Rad Laboratories, Hercules, CA, USA) with or without TCEP (for reducing or nonreducing condition, respectively) were resolved by 4-12% SDS-PAGE (Bio-Rad Laboratories). IgA bands were subsequently visualized either by staining with GelCode Blue (Thermo Fisher Scientific), or by Western blotting on PVDF membrane. For Western blotting, 5% non-fat milk was used in blocking for one hour at room temperature. The membrane was then incubated with mouse anti-Histag antibody (Thermo Scientific), or HRP-conjugated goat anti-rat IgA α-chain antibody (Cat. ab97185, Abcam, UK), or goat anti-human IgA HRP antibody (Cat: 2050-05, SouthernBiotech) for detecting rat or human IgA (Fc), respectively. The membrane was developed using the Clarity™ ECL substrate (Bio-Rad Laboratories, CA, USA).

rat poly-rIgA = assay: Nonreducing SDS-PAGE analysis of rat poly-rIgA after pretreatment; conditions: cysteamine 0 to 10 mM; TCEP 10 mM; untreated poly-IgA >250 kDa
Protocol: as §2
To further ascertain the mechanism-of-action of cysteamine in targeting disulfides, nonreducing SDS-PAGE analysis was performed of rat poly-rIgA (FIG. 5, part D). The samples were pretreated with 0 to 10 mM cysteamine, or 10 mM TCEP as positive control. As expected, poly-IgA appeared as >250 kDa bands on SDS-PAGE. Dose-dependent response of poly-rIgA to cysteamine was evident, with majority of the protein running at ˜64 kDa of disaggregated monomers.

[2] = target: T1, poly-IgA complexes from IgA nephropathy patients' plasma (Homo sapiens, UniProt P01876); assay: SDS-PAGE / anti-IgA Western blotting of poly-IgA from IgA nephropathy patients' plasma with or without reducing agent; conditions: reducing condition
T1 construct: human IgA1 whole molecule was purified from pooled plasma of IgA nephropathy patients; from tissue
T1 sequence (P01876 1-353 isoform P01876-1, one chain of several): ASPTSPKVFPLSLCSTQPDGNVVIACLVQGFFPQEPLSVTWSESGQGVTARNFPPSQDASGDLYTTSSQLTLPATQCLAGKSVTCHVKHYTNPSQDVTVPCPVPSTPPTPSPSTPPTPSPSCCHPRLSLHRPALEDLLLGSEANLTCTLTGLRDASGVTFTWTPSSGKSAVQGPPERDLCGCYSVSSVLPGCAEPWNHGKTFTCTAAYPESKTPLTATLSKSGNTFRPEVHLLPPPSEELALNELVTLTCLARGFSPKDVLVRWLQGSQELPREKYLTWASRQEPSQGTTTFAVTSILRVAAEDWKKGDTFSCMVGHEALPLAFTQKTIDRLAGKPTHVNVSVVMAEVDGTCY
From the text: (§3) IgA1 from IgA nephropathy patient sera was purified by Jacalin (Thermo Scientific, USA)-directed affinity chromatography. Poly-IgA1 contents were further enriched via running Superdex 200 Increase gel filtration molecular sieve (GE Biosciences) and collecting high-molecular weight fractions from an AKTA protein purification system (GE Biosciences). Human serum from healthy donors was purchased from Sigma-Aldrich and total IgA1 was also purified by running Jacalin-directed chromatography. Purified total IgA1 was used for injecting mice.
Proteins in sample buffer (Bio-Rad Laboratories, Hercules, CA, USA) with or without TCEP (for reducing or nonreducing condition, respectively) were resolved by 4-12% SDS-PAGE (Bio-Rad Laboratories). IgA bands were subsequently visualized either by staining with GelCode Blue (Thermo Fisher Scientific), or by Western blotting on PVDF membrane. […]
In this Example, it was sought to isolate high molecular weight IgA complexes, such as poly-IgA, from plasma of IgA nephropathy patients. […] By running SDS-PAGE of the poly-IgA fraction under both reducing and nonreducing conditions, it was determined that the molecular complexes of IgA were connected through disulfide bridges (FIG. 1, part B). […] IgA1 complexes were extracted from individual patients by SEC and analyzed the contents by SDS-PAGE.

human IgA1 (poly-IgA1) = target: T2, human IgA1 (poly-IgA1) (Homo sapiens, UniProt P01876); assay: SEC of native human IgA1 treated ex vivo; conditions: total IgA1 from human sera, FIG. 5 E-F
T2 construct: human IgA1 whole molecule was purified from pooled plasma of IgA nephropathy patients; from tissue
T2 sequence (P01876 1-353 isoform P01876-1): as the sequence (P01876 1-353 isoform P01876-1, one chain of several) above
From the text: as §3, §1
In the meantime, the SEC column was also equilibrated with PBS supplemented with the reducing agent at the same concentration. For running SEC, 100 μL of the recombinant IgA (concentration varies between 1 mg/mL and 8 mg/mL) or purified native human IgA1 (˜1 mg/mL) was loaded to the column and UV absorption was recorded following elution. Recombinant IgA typically formed two elution peaks: a minor peak of ˜800 kDa poly-rIgA followed by a major peak of ˜170 kDa of monomeric rIgA. The ratios between poly-rIgA and mono-rIgA were calculated as between the corresponding areas under the curve (AUC), and the treatment effect of the thiol agents was judged by the reduction of the poly-rIgA level with a compensatory increase of the mono-rIgA content.
In addition, human IgA1 whole molecule was purified from pooled plasma of IgA nephropathy patients and subjected the sample to different concentrations of cysteamine (FIG. 5, part C). […]

SMILES | disassembly of poly-rIgA into monomers (SEC) (Rat rIgA (poly-rIgA)) | disruption of natural IgA assembly / normal pairing of IgA heavy chains [1] | poly-IgA level (SEC) (human IgA1 (poly-IgA1)) | also measured
O[C@@H](CS)[C@@H](O)CS (racemic) [DDT, 1,4-Dithiothreitol] | poly-rIgA disassembled into monomers | inadvertently dissociated normal pairing of IgA heavy chains |  | 
O=C(O)CCP(CCC(=O)O)CCC(=O)O [TCEP, tris(2-carboxyethyl)phosphine] | poly-rIgA disassembled into monomers | inadvertently dissociated normal pairing of IgA heavy chains |  | molecular weight of protein band after pretreatment (nonreducing SDS-PAGE) (rat poly-rIgA): ~32 kDa; size of IgA band after reduction of ~600 kDa poly-IgA (Western blot) ([2]; pooled plasma of IgA nephropathy patients (n=10)): ~65 KDa
NCCCNCCS [WR-1065, 2-[(3-aminopropyl)amino]ethanethiol] |  | did not cause unwanted disruption of natural IgA1 assembly | reduction of poly-IgA levels | 
N[C@@H](CCC(=O)N[C@@H](CS)C(=O)NCC(=O)O)C(=O)O [glutathione] |  |  |  | effect on poly-IgA levels at comparable concentrations (Rat rIgA (poly-rIgA); compared with cysteamine, WR-1065, N-acetylcysteine): relatively modest effects on poly-IgA levels
OCCS [2-mercaptoethanol] |  |  |  | size of IgA1 band after reduction of ~600 kDa poly-IgA1 (Western blot) ([2]; eight individual IgA nephropathy patients): ~65 kDa
CC(=O)N[C@@H](CS)C(=O)O [N-acetylcysteine, N-acetyl-L-cysteine] |  | did not cause unwanted disruption of natural IgA1 assembly | lowered poly-IgA levels in a dose-dependent manner | 
